Measurements taken from ChEMBL document CHEMBL2380233, “Addition of artificial salt bridge by Ile646Lys mutation in gp41 coiled-coil domain regulates 6-helical bundle formation” (Bioorg Med Chem Lett, 2013).

Tests used:
[1] = test system: Human immunodeficiency virus 1; experiment: Antiviral activity against HIV1 CNE3 infected in HEK293T cells by luciferase reporter gene assay; format: functional, organism-based; conditions: Human immunodeficiency virus 1, CNE3, HEK-293T
[2] = test system: Human immunodeficiency virus 1; experiment: Antiviral activity against HIV1 HXB2 infected in HEK293T cells by luciferase reporter gene assay; format: functional, organism-based; conditions: Human immunodeficiency virus 1, HXB2, HEK-293T
[3] = test system: Human immunodeficiency virus 1; experiment: Antiviral activity against HIV1 SF162 infected in HEK293T cells by luciferase reporter gene assay; format: functional, cell-based; conditions: Human immunodeficiency virus 1, SF162 ISOLATE, HEK-293T
[4] = test system: Human immunodeficiency virus 1; experiment: Antiviral activity against HIV1 JRFL infected in HEK293T cells by luciferase reporter gene assay; format: functional, organism-based; conditions: Human immunodeficiency virus 1, JRFL, HEK-293T

| IC50 [1] | IC50 [2] | IC50 [3] | IC50 [4] | Compound |
| --- | --- | --- | --- | --- |
| 550 nM | 94 nM | 520 nM | 920 nM | CC[C@H](C)[C@H](NC(=O)[C@H](CCC(=O)O)NC(=O)[C@H](CCCNC(=N)N)NC(=O)[C@H](CC(=O)O)NC(=O)[C@H](Cc1c[nH]c2ccccc12)NC(=O)[C@H](CCC(=O)O)NC(=O)[C@H](CCSC)NC(=O)[C@H](Cc1c[nH]c2ccccc12)NC(C)=O)C(=O)N[C@@H](CC(N)=O)C(=O)N[C@@H](CC(N)=O)C(=O)N[C@@H](Cc1ccc(O)cc1)C(=O)N[C@H](C(=O)N[C@@H](CO)C(=O)N[C@@H](CC(C)C)C(=O)N[C@H](C(=O)N[C@@H](Cc1cnc[nH]1)C(=O)N[C@@H](CO)C(=O)N[C@@H](CC(C)C)C(=O)N[C@@H](CCCCN)C(=O)N[C@@H](CCC(=O)O)C(=O)N[C@@H](CCC(=O)O)C(=O)N[C@@H](CO)C(=O)N[C@@H](CCC(N)=O)C(=O)N[C@@H](CC(N)=O)C(=O)N[C@@H](CCC(N)=O)C(=O)N[C@@H](CCC(N)=O)C(=O)N[C@@H](CCC(=O)O)C(=O)N[C@@H](CCCCN)C(=O)N[C@@H](CC(N)=O)C(=O)N[C@@H](CCC(=O)O)C(=O)N[C@@H](CCC(N)=O)C(=O)N[C@@H](CCC(=O)O)C(=O)N[C@@H](CC(C)C)C(=O)N[C@@H](CC(C)C)C(N)=O)[C@@H](C)CC)[C@@H](C)O |
| 470 nM | 1310 nM | 1430 nM | 1190 nM | CC[C@H](C)[C@H](NC(=O)[C@H](CCC(=O)O)NC(=O)[C@H](CCCNC(=N)N)NC(=O)[C@H](CC(=O)O)NC(=O)[C@H](Cc1c[nH]c2ccccc12)NC(=O)[C@H](CCC(=O)O)NC(=O)[C@H](CCSC)NC(=O)[C@H](Cc1c[nH]c2ccccc12)NC(C)=O)C(=O)N[C@@H](CC(N)=O)C(=O)N[C@@H](CC(N)=O)C(=O)N[C@@H](Cc1ccc(O)cc1)C(=O)N[C@H](C(=O)N[C@@H](CO)C(=O)N[C@@H](CC(C)C)C(=O)N[C@H](C(=O)N[C@@H](Cc1cnc[nH]1)C(=O)N[C@@H](CO)C(=O)N[C@@H](CC(C)C)C(=O)N[C@@H](CCC(=O)O)C(=O)N[C@@H](CCC(=O)O)C(=O)N[C@@H](CCC(=O)O)C(=O)N[C@@H](CO)C(=O)N[C@@H](CCC(N)=O)C(=O)N[C@@H](CC(N)=O)C(=O)N[C@@H](CCC(N)=O)C(=O)N[C@@H](CCC(N)=O)C(=O)N[C@@H](CCC(=O)O)C(=O)N[C@@H](CCCCN)C(=O)N[C@@H](CC(N)=O)C(=O)N[C@@H](CCC(=O)O)C(=O)N[C@@H](CCC(N)=O)C(=O)N[C@@H](CCC(=O)O)C(=O)N[C@@H](CC(C)C)C(=O)N[C@@H](CC(C)C)C(N)=O)[C@@H](C)CC)[C@@H](C)O |
